Source: patent publication US10626087B2, “Indoline and tetrahydroquinoline sulfonyl inhibitors of dimetalloenzymes and use of the same” (priority 2015, dated 2020)
Read-outs that look alike come from different tables or passages of the source.

Biological target: NDM-1 (Klebsiella pneumoniae, UniProt C7C422)
Assay: Inhibition of NDM-1 assay (CHROMACEF hydrolysis, absorbance at 442 nm)
Type: biochemical
Conditions: for Activity w/100 uM [I]: enzyme activity with 100 uM inhibitor; for Activity w/200 uM [I]: enzyme activity with 200 uM inhibitor
Experimental: The ability of the compounds described herein to inhibit NDM-1 was determined in the following way.
A Substrate Working Solution was prepared from CRHROMACEF (6 μM) and Tween-20 (0.02% v/v) in water. An Enzyme Working Solution was prepared with NDM-1 (0.5 μg/mL), Hepes (0.1 M), pH 7 and Tween-20 (0.02% v/v). An Inhibitor Working Solution was prepared from 50 mM of the inhibitor in DMSO. The final assay conditions were 1 mL, Hepes (50 mM), pH 7, Tween-20 (0.02% v/v), CHROMACEF (3 uM), Δ35 NDM-1 (0.25 μg/mL). Extra zinc was omitted from these assays because extra ZnSO4 interferes with the metal binding groups in inhibitors.
[…] Supplemental DMSO was added to reach a final volume of 4 μL. NDM-1 Working Solution ([…]) was added to the cuvette and the inhibitor and enzyme were allowed to incubate for about 20 minutes. The reaction was initiated by added 0.5 mL Substrate Working Solution. The solution was mixed quickly, but gently to avoid bubble formation. […] to start the reaction. The reaction was mixed fast, but gently. The change in absorbance ΔΔAbs442nm/min was measured for each inhibitor from the linear slope from each inhibitor concentration.

[1] = *estimated or actual from a single point, target not given, values match the NDM-1 IC50 column, read-out: IC50 μM*
[2] = fitted IC50 with error, read-out: NDM-1 IC50

NDM-1, sequence (C7C422 36-270 limits assumed, looked up): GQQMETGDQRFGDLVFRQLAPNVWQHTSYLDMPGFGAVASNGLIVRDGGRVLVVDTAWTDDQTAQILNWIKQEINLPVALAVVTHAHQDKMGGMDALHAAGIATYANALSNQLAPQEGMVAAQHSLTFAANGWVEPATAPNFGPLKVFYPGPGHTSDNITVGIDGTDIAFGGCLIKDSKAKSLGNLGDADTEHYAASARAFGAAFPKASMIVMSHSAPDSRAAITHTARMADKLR

Compound	IC50 [1]	inhibition at 5 µM	inhibition at 50 µM (at 50 μM)	further results
O=C(O)c1ccc(CN2C(=O)c3ccccc3C2=O)cc1	–	–	–	Activity w/100 uM [I]: 54%; Activity w/200 uM [I]: 38%
CC(=O)N1CCc2cc(Br)c(S(=O)(=O)n3cc(C4(O)CCCCC4)nn3)cc21	–	–	–	Activity w/100 uM [I]: 53%; Activity w/200 uM [I]: 53%
CC(=O)N1CCc2cc(Cl)c(S(=O)(=O)/N=C(\N)CCO)cc21	1 µM	78.3%	99%	–
COC(=O)C/C(N)=N/S(=O)(=O)c1cc2c(cc1Br)CCN2C(C)=O	2 µM	77.8%	–	–
CC(=O)N1CCc2cc(Br)c(S(=O)(=O)/C=C(\N)CC(O)c3ccccc3)cc21 (stereo not drawn)	2.6 µM	75.4%	–	inhibition at 25 µM: 98.5%; IC50 [2]: 2.62 µM
CC(=O)N1CCc2cc(Cl)c(S(=O)(=O)/C=C(\N)CC(O)c3ccccc3)cc21 (stereo not drawn)	3 µM	58.4%	96.9%	–
CC(=O)N1CCc2cc(Br)c(S(=O)(=O)/N=C(\N)CCO)cc21	9 µM	–	90.3%	inhibition at 10 µM: 54%
CC(=O)N1CCc2cc(Br)c(S(=O)(=O)/N=C(\N)Cc3ccccn3)cc21	14 µM	–	97%	inhibition at 10 µM: 42.9%
CN/C(CC(C)(C)O)=N\S(=O)(=O)c1cc2c(cc1Br)CCN2C(C)=O	49 µM	–	54.4%	–
CC(=O)N1CCc2cc(Br)c(S(=O)(=O)/N=C(\N)CC3(O)CCCC3)cc21	55 µM	–	42%	inhibition at 200 µM: 64.6%
CC(=O)N1CCc2cc(Br)c(S(=O)(=O)/N=C(\N)CC3(O)CCCCC3)cc21	60 µM	–	35%	–
CC(=O)N1CCc2cc(Cl)c(S(=O)(=O)/N=C(\N)CC(C)(C)O)cc21	80 µM	19.9%	32.7%	–
CC(=O)N1CCc2cc(Br)c(S(=O)(=O)NC(=O)CC(C)(C)O)cc21	8.7 µM	–	93%	inhibition at 10 µM: 62.7%; IC50 [2]: 8.74 µM
CC(=O)N1CCc2cc(Cl)c(S(=O)(=O)NC(=O)CC(O)c3ccccc3)cc21 (stereo not drawn)	100 µM	15.5%	31.9%	–
CC(=O)N1CCc2cc(Br)c(S(=O)(=O)NC(=O)CC(O)c3ccccc3)cc21 (stereo not drawn)	100 µM	8.1%	28.8%	–
CC(=O)NS(=O)(=O)c1ccc2c(c1)N(C(C)=O)CC2	300 µM	–	10%	inhibition at 200 µM: 34%
CC(=O)N1CCc2cc(F)c(S(=O)(=O)NC(=O)CC(O)c3ccccc3)cc21 (stereo not drawn)	–	–	12.8%	NDM-1 % Inhibition (at 50 μM): 13.7%
CC(=O)NS(=O)(=O)c1cc2c(cc1Br)CCN2C(C)=O	–	–	–	inhibition at 500 µM (at 500 μM): 18%
CC(=O)N1CCc2cc(Br)c(S(=O)(=O)n3cc(C(C)O)nn3)cc21 (stereo not drawn)	2.9 µM	73.8%	–	inhibition at 25 µM: 95.1%; IC50 [2]: 2.91 µM
CC(=O)N1CCc2cc(Br)c(S(=O)(=O)n3cc(C(C)(C)O)nn3)cc21	100 µM	–	–	inhibition at 100 µM: 47%; inhibition at 200 µM: 47%; IC50 [2]: 100 µM
CC(=O)N1CCc2cc(Br)c(S(=O)(=O)n3cc(-c4ccccc4)nn3)cc21	–	–	–	inhibition at 100 µM: 25%
CC(=O)N1CCc2cc(Br)c(S(=O)(=O)/N=C(\N)Cc3ccccc3)cc21 [MM-86]	–	–	–	Activity w/100 uM [I]: 63%; Activity w/200 uM [I]: 46%
CO/C(CC(C)(C)O)=N\S(=O)(=O)c1cc2c(cc1Br)CCN2C(C)=O [MM-94]	–	–	–	Activity w/100 uM [I]: 96%; Activity w/200 uM [I]: 35%
CC(=O)N1CCc2cc(Br)c(S(=O)(=O)/N=C(\N)CC(C)(C)O)cc21 [drawing 95]	–	–	–	Activity w/100 uM [I]: 26%; Activity w/200 uM [I]: 6.4%
CC(=O)N1CCc2cc(Br)c(S(=O)(=O)/N=C(\N)CC(C)(C)O)cc21 [drawing 104]	22 µM	–	–	Ki: 6 µM; inhibition at 100 µM: 74%; inhibition at 200 µM: 93.6%; IC50 [2]: 22 µM
CC(=O)N1CCc2cc(Br)c(S(=O)(=O)/N=C(\N)Cc3ccccc3)cc21 [drawing 109]	110 µM	–	–	inhibition at 100 µM: 55.5%; inhibition at 200 µM: 73.8%; IC50 [2]: 110 µM
